Assay results taken from patent publication US9908868B2, “Isoindolinone compounds as GPR119 modulators for the treatment of diabetes, obesity, dyslipidemia and related disorders” (SANOFI, priority 2014, dated 2018).
pEC50: −log10 of the molar value.

Target: T1, human GPR119 (Homo sapiens, UniProt Q8TDV5)
T1 construct: expressed in transfected cells
T1 sequence (Q8TDV5 1-335): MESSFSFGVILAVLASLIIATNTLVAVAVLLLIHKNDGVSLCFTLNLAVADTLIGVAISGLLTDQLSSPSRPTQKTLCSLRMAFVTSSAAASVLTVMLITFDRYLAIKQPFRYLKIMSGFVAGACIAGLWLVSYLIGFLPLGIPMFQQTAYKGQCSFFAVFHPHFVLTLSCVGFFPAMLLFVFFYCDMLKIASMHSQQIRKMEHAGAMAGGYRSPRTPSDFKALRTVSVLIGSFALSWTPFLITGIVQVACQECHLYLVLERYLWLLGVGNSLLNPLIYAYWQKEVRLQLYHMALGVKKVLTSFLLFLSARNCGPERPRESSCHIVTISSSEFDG
Experiment: Functional cellular assay measuring GPR119-mediated cAMP release (HTRF) in HEK-293 cells stably expressing recombinant human GPR119
Format: cell-based
Conditions: cAMP response, cell line expressing human GPR119, 30 minutes at room temperature
Protocol: Functional Cellular Assays Measuring GPR119-Mediated cAMP Release
Compounds of the invention, which are agonists of GPR119, were characterized by functional assays measuring the cAMP response of HEK-293 cell lines stably expressing recombinant GPR119 from man, mouse or rat, or by using a hamster cell line HIT-T15 expressing GPR119 endogenously. The cAMP content was determined using a kit based on homogenous time-resolved fluorescence (HTRF) from Cisbio Corp. (cat. no. 62AM4PEC). For preparation, cells were split into T175 culture flasks and grown to near confluency in medium (DMEM/10% FCS for HEK-293 cells, and F-12K medium/10% horse serum/2.5% FCS for HIT-T15 cells, respectively). Medium was then removed and cells washed with PBS lacking calcium and magnesium ions, followed by proteinase treatment with accutase (Sigma-Aldrich, cat. no. A6964). Detached cells were washed and resuspended in assay buffer (1×HBSS; 20 mM HEPES, 0.1% BSA, 2 mM IBMX) and cellular density determined. They were then diluted to 400000 cells/mL and 25 μL-aliquots dispensed to the wells of 96-well plates. For measurement, 25 μL of test compound in assay buffer was added and incubated for 30 minutes at room temperature. After addition of HTRF reagents diluted in lysis buffer, the plates were incubated for 1 hour, followed by measuring the fluorescence ratio at 665 vs. 620 nm. Potency of the agonists was quantified by determining the concentrations that caused 50% of the maximal response/activation (EC50). See Table 7 for exemplary data obtained using the cell line expressing human GPR119.

Row | pEC50 | Compound
1 | 6.66 | O=C(CN1Cc2ccc(N3CC[C@@H](Oc4ccc(OCC(F)(F)F)nc4)C3=O)cc2C1=O)N1CC(O)C1 [Example 1-47, 2-[2-(3-hydroxyazetidin-1-yl)-2-oxo-ethyl]-6-[(3R)-2-oxo-3-[[6-(2,2,2-trifluoroethoxy)-3-pyridyl]oxy]pyrrolidin-1-yl]isoindolin-1-one]
2 | 4.84 | O=C1[C@H](Oc2ccc(OCC3CC3)nc2)CCN1c1ccc2[nH][nH]c(=O)c2c1 [Example 1-24, 5-[(3R)-3-[[6-(cyclopropylmethoxy)-3-pyridyl]oxy]-2-oxo-pyrrolidin-1-yl]-1,2-dihydroindazol-3-one]
3 | 7.01 | CN(C)C(=O)CN1Cc2ccc(N3CC[C@@H](Oc4ccc(C(=O)C5CC(F)(F)C5)cc4)C3=O)cc2C1=O [Example 2-63, 2-[6-[(3R)-3-[4-(3,3-difluorocyclobutanecarbonyl)phenoxy]-2-oxo-pyrrolidin-1-yl]-1-oxo-isoindolin-2-yl]-N,N-dimethyl-acetamide]
4 | 5.20 | CN(C)C(=O)CN1Cc2ccc(N3CC[C@@H](Oc4ccc(N5CCCC5)cc4)C3=O)cc2C1=O [Example 2-46, N,N-dimethyl-2-[1-oxo-6-[(3R)-2-oxo-3-(4-pyrrolidin-1-ylphenoxy)pyrrolidin-1-yl]isoindolin-2-yl]acetamide]
5 | 6.37 | CC1(C(=O)c2ccc(O[C@@H]3CCN(c4ccc5c(c4)C(=O)N(CC(N)=O)C5)C3=O)cn2)CC1 [Example 2-49, 2-[6-[(3R)-3-[[6-(1-methylcyclopropanecarbonyl)-3-pyridyl]oxy]-2-oxo-pyrrolidin-1-yl]-1-oxo-isoindolin-2-yl]acetamide]
6 | 6.01 | CN(C)C(=O)CN1Cc2ncc(N3CC[C@@H](Oc4ccc(Oc5ccc(F)cc5)nc4)C3=O)cc2C1=O [Example 1-28, 2-[3-[(3R)-3-[[6-(4-fluorophenoxy)-3-pyridyl]oxy]-2-oxo-pyrrolidin-1-yl]-5-oxo-7H-pyrrolo[3,4-b]pyridin-6-yl]-N,N-dimethyl-acetamide]
7 | 7.27 | CN(C)C(=O)CN1Cc2ccc(N3CC[C@@H](Oc4ccc(O[C@H]5C[C@@H]6C[C@@H]6C5)nc4)C3=O)cc2C1=O [Example 2-03, 2-[6-[(3R)-3-[[6-[[(1S,5R)-3-bicyclo[3.1.0]hexanyl]oxy]-3-pyridyl]oxy]-2-oxo-pyrrolidin-1-yl]-1-oxo-isoindolin-2-yl]-N,N-dimethyl-acetamide]
8 | 7.09 | CS(=O)(=O)CN1Cc2ncc(N3CC[C@@H](Oc4ccc(OCC(F)(F)F)nc4)C3=O)cc2C1=O [Example 1-67, 6-(methylsulfonylmethyl)-3-[(3R)-2-oxo-3-[[6-(2,2,2-trifluoroethoxy)-3-pyridyl]oxy]pyrrolidin-1-yl]-7H-pyrrolo[3,4-b]pyridin-5-one]
9 | 6.35 | O=C(CN1Cc2ccc(N3CC[C@@H](Oc4ccc(OCC5CC5)nc4)C3=O)cc2C1=O)NC(CO)CO [Example 4-32, 2-[6-[(3R)-3-[[6-(cyclopropylmethoxy)-3-pyridyl]oxy]-2-oxo-pyrrolidin-1-yl]-1-oxo-isoindolin-2-yl]-N-[2-hydroxy-1-(hydroxymethyl)ethyl]acetamide]
10 | 5.47 | CN(C)C(=O)CN1Cc2ccc(N3CC[C@@H](Oc4ccc(-c5nnco5)cc4)C3=O)cc2C1=O [Example 2-29, N,N-dimethyl-2-[6-[(3R)-3-[4-(1,3,4-oxadiazol-2-yl)phenoxy]-2-oxo-pyrrolidin-1-yl]-1-oxo-isoindolin-2-yl]acetamide]
11 | 6.27 | O=C(CN1Cc2ccc(N3CC[C@@H](Oc4ccc(OCC5CC5)nc4)C3=O)cc2C1=O)NC[C@H](O)CO [Example 4-34, 2-[6-[(3R)-3-[[6-(cyclopropylmethoxy)-3-pyridyl]oxy]-2-oxo-pyrrolidin-1-yl]-1-oxo-isoindolin-2-yl]-N-[(2S)-2,3-dihydroxypropyl]acetamide]
12 | 7.05 | CC(C)(C)OC(=O)CN1Cc2c(F)cc(N3CC[C@@H](Oc4ccc(OCC5CC5)nc4)C3=O)cc2C1=O [Example 1-01, Tert-butyl 2-[6-[(3R)-3-[[6-(cyclopropylmethoxy)-3-pyridyl]oxy]-2-oxo-pyrrolidin-1-yl]-4-fluoro-1-oxo-isoindolin-2-yl]acetate]
13 | 6.46 | CN(C)C(=O)CN1Cc2c(F)cc(N3CC[C@@H](Oc4ccc(OC5CC5)nc4)C3=O)cc2C1=O [Example 1-21, 2-[6-[(3R)-3-[[6-(cyclopropoxy)-3-pyridyl]oxy]-2-oxo-pyrrolidin-1-yl]-4-fluoro-1-oxo-isoindolin-2-yl]-N,N-dimethyl-acetamide]
14 | 7.46 | CN(C)C(=O)CN1Cc2ccc(N3CC[C@@H](Oc4ccc(OCCC5CC5)nc4)C3=O)cc2C1=O [Example 1-38, 2-[6-[(3R)-3-[[6-(2-cyclopropylethoxy)-3-pyridyl]oxy]-2-oxo-pyrrolidin-1-yl]-1-oxo-isoindolin-2-yl]-N,N-dimethyl-acetamide]
15 | 4.85 | CN(C)C(=O)Cn1c(=O)c2cc(N3CC[C@H](Oc4ccc(OCC5CC5)nc4)C3=O)ccc2n1C [Example 1-26, 2-[5-[(3S)-3-[[6-(cyclopropylmethoxy)-3-pyridyl]oxy]-2-oxo-pyrrolidin-1-yl]-1-methyl-3-oxo-indazol-2-yl]-N,N-dimethyl-acetamide]
16 | 6.56 | CN(C)C(=O)c1nc2ccc(N3CC[C@@H](Oc4ccc(OCC5CC5)nc4)C3=O)cc2c(=O)[nH]1 [Example 1-44, 6-[(3R)-3-[[6-(cyclopropylmethoxy)-3-pyridyl]oxy]-2-oxo-pyrrolidin-1-yl]-N,N-dimethyl-4-oxo-3H-quinazoline-2-carboxamide]
17 | 6.47 | CN(C)C(=O)CN1Cc2ccc(N3CC[C@@H](Oc4ccc(-c5csnn5)cc4)C3=O)cc2C1=O [Example 2-40, N,N-dimethyl-2-[1-oxo-6-[(3R)-2-oxo-3-[4-(thiadiazol-4-yl)phenoxy]pyrrolidin-1-yl]isoindolin-2-yl]acetamide]
18 | 7.19 | Cn1nnc(CN2Cc3c(F)cc(N4CC[C@@H](Oc5ccc(OCC6CC6)nc5)C4=O)cc3C2=O)n1 [Example 1-18, 6-[(3R)-3-[[6-(cyclopropylmethoxy)-3-pyridyl]oxy]-2-oxo-pyrrolidin-1-yl]-4-fluoro-2-[(2-methyltetrazol-5-yl)methyl]isoindolin-1-one]
19 | 6.49 | CCOc1ccc(O[C@@H]2CCN(c3cc(F)c4c(c3)C(=O)N(CC(=O)NC)C4)C2=O)cn1 [Example 4-13, 2-[6-[(3R)-3-[(6-ethoxy-3-pyridyl)oxy]-2-oxo-pyrrolidin-1-yl]-4-fluoro-1-oxo-isoindolin-2-yl]-N-methyl-acetamide]
20 | 7.82 | CCOC(=O)CN1Cc2ccc(N3CC[C@@H](Oc4ccc(OCC5CC5)nc4)C3=O)cc2C1=O [Example 1-29, ethyl 2-[6-[(3R)-3-[[6-(cyclopropylmethoxy)-3-pyridyl]oxy]-2-oxo-pyrrolidin-1-yl]-1-oxo-isoindolin-2-yl]acetate]
21 | 7.18 | C[S+]([O-])CN1Cc2ccc(N3CC[C@@H](Oc4ccc(OCC(F)(F)F)nc4)C3=O)cc2C1=O (stereo partly drawn) [Example 1-54, 2-(methylsulfinylmethyl)-6-[(3R)-2-oxo-3-[[6-(2,2,2-trifluoroethoxy)-3-pyridyl]oxy]pyrrolidin-1-yl]isoindolin-1-one]
22 | 7.46 | CN(C)C(=O)CN1Cc2c(F)cc(N3CC[C@@H](Oc4ccc(OCC5CCC5)nc4)C3=O)cc2C1=O [Example 6-04, 2-[6-[(3R)-3-[[6-(cyclobutylmethoxy)-3-pyridyl]oxy]-2-oxo-pyrrolidin-1-yl]-4-fluoro-1-oxo-isoindolin-2-yl]-N,N-dimethyl-acetamide]
23 | 6.09 | CN(C)C(=O)CN1Cc2ccc(N3CC[C@@H](Oc4ccc(-c5cnccn5)cc4)C3=O)cc2C1=O [Example 2-38, N,N-dimethyl-2-[1-oxo-6-[(3R)-2-oxo-3-(4-pyrazin-2-ylphenoxy)pyrrolidin-1-yl]isoindolin-2-yl]acetamide]
24 | 7.12 | CCCC(=O)c1ccc(O[C@@H]2CCN(c3ccc4c(c3)C(=O)N(CC(=O)N(C)C)C4)C2=O)cc1 [Example 2-13, 2-[6-[(3R)-3-(4-butanoylphenoxy)-2-oxo-pyrrolidin-1-yl]-1-oxo-isoindolin-2-yl]-N,N-dimethyl-acetamide]
25 | 6.16 | CN1Cc2c(F)cc(N3CC[C@@H](Oc4ccc(OCC5CC5)nc4)C3=O)cc2C1=O [Example 1-23, 6-[(3R)-3-[[6-(cyclopropylmethoxy)-3-pyridyl]oxy]-2-oxo-pyrrolidin-1-yl]-4-fluoro-2-methyl-isoindolin-1-one]
26 | 6.81 | CN(C)C(=O)CN1Cc2ccc(N3CC[C@@H](Oc4ccc(CCC5CC5)nc4)C3=O)cc2C1=O [Example 2-04, 2-[6-[(3R)-3-[[6-(2-cyclopropylethyl)-3-pyridyl]oxy]-2-oxo-pyrrolidin-1-yl]-1-oxo-isoindolin-2-yl]-N,N-dimethyl-acetamide]
